Values quoted from earlier work, collected in patent US9061052B2, “Aqueous extract of tobacco leaves, its uses in the treatment of dependence” (NFL BIOSCIENCE, priority 2006, dated 2015).

System: tobacco dependence
Conditions: in vivo

CC(NC(C)(C)C)C(=O)c1cccc(Cl)c1 (stereo not shown) [Zyban, bupropion]
Adverse effects: dry mouth sensation, insomnia and dizziness
